In experiment [1] the target is T1, Carboxy-terminal domain RNA polymerase II polypeptide A small phosphatase 1 (Homo sapiens, UniProt Q9GZU7).
T1 sequence (Q9GZU7 whole entry): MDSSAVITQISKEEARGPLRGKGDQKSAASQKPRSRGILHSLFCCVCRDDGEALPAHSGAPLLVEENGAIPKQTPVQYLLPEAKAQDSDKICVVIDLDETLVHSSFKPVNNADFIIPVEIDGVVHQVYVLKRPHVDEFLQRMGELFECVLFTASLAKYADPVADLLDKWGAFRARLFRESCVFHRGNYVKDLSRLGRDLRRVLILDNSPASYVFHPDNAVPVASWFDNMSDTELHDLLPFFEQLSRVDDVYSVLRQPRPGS
Nature of the experiment: inhibitors of CTDSP1, concentration-response testing, biochemical assay, absorbance-based, actives from ultra-high-throughput screening (AID 540297). Type of experiment: functional.

Experiment [2] concerns the target T2, Corticotropin-releasing factor receptor 2/Corticotropin-releasing factor-binding protein (Homo sapiens, UniProt P24387+Q13324).
T2 sequence (Q13324 whole entry): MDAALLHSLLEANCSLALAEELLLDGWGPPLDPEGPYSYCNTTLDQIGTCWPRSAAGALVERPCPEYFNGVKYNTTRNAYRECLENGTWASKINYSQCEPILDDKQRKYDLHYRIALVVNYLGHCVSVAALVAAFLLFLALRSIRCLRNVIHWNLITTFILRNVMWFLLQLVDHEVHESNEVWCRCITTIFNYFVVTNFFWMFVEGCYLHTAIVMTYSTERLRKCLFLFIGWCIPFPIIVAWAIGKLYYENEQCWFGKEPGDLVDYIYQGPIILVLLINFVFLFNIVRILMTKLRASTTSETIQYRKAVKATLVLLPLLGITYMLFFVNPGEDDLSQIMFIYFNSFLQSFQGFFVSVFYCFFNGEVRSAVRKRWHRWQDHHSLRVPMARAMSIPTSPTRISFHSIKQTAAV
T2 sequence (P24387 whole entry): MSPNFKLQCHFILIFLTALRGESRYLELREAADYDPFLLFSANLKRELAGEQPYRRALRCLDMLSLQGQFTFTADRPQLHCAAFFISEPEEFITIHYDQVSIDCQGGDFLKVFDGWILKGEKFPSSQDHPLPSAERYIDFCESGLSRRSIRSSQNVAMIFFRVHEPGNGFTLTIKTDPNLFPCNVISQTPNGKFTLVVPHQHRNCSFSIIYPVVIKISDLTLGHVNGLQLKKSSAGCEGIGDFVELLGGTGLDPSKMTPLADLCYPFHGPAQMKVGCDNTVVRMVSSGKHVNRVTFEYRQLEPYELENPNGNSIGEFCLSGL
Nature of the experiment: Dose Response confirmation of uHTS hits for small molecule antagonists of the CRF-binding protein and CRF-R2 receptor complex. Type of experiment: functional. The conditions noted are these: read-out: IC50_Mean.

Experiment [3] deals with T2, Corticotropin-releasing factor receptor 2/Corticotropin-releasing factor-binding protein. Description: activators of CRF receptor 2 with binding protein – uHTS hits, confirmation (AID 602473). The conditions noted are these: read-out: EC50_Mean. Format: functional.
Experiment [4] in a line: NIH-3T3 fibroblast cytotoxicity, dose response, cytotoxicity control, cell-based, fluorescence, Alamar Blue, secondary assay (AID 2327).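 Also: NIH-3T3 mouse fibroblasts cultured with fluconazole at 8 µg/mL.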 Format: functional. (Alamar Blue is a resazurin reagent that responds to reducing activity.)
A short description of experiment [5]: C. albicans growth with fluconazole, confirmation, fluorescence, retest (AID 2467). Format: functional, cell-based.
Experiment [6] is described as follows: inhibitors of intracellular T. cruzi replication, confirmation, NIH3T3 host cells, beta-gal luminescence (AID 2044).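 Also: intracellular parasites grown in NIH/3T3 mouse fibroblasts as host cells; luminescent beta-galactosidase reporter signal from transgenic T. cruzi replicating inside host cells; inhibitors lower the luminescence signal.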 Format: functional, cell-based.
A short description of experiment [7]: cytotoxicity toward NIH3T3 fibroblasts, dose response, counter-screen, cell-based, ATP luminescence, mouse fibroblasts (AID 2010).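 Also: cells exposed to compound for about 90 hours before reading.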 Type of experiment: functional. In general terms: Counterscreens check selectivity or assay interference.
A short description of a further experiment: cells. Format: functional.
The target of another experiment is T3, Caspase-3 (Homo sapiens, UniProt P42574).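 Also: Dose-response selectivity test against caspase-3 for candidate inhibitors of sentrin-specific proteases (SENPs).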
T3 sequence (P42574 whole entry): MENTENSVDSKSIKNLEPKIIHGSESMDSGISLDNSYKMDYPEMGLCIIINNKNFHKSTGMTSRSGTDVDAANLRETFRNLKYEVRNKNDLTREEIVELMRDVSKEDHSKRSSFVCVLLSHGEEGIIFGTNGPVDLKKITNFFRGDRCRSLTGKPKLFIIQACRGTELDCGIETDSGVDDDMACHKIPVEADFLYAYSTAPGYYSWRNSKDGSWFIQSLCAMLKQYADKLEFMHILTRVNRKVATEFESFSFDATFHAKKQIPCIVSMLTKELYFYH
Type of experiment: functional.

The target in experiment [8] is T4, Sentrin-specific protease 7 (Homo sapiens, UniProt Q9BQF6).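 Also: Luminescence-based dose-response confirmation of ultra-high-throughput screening hits, measuring inhibition of SENP7.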
T4 sequence (Q9BQF6 whole entry): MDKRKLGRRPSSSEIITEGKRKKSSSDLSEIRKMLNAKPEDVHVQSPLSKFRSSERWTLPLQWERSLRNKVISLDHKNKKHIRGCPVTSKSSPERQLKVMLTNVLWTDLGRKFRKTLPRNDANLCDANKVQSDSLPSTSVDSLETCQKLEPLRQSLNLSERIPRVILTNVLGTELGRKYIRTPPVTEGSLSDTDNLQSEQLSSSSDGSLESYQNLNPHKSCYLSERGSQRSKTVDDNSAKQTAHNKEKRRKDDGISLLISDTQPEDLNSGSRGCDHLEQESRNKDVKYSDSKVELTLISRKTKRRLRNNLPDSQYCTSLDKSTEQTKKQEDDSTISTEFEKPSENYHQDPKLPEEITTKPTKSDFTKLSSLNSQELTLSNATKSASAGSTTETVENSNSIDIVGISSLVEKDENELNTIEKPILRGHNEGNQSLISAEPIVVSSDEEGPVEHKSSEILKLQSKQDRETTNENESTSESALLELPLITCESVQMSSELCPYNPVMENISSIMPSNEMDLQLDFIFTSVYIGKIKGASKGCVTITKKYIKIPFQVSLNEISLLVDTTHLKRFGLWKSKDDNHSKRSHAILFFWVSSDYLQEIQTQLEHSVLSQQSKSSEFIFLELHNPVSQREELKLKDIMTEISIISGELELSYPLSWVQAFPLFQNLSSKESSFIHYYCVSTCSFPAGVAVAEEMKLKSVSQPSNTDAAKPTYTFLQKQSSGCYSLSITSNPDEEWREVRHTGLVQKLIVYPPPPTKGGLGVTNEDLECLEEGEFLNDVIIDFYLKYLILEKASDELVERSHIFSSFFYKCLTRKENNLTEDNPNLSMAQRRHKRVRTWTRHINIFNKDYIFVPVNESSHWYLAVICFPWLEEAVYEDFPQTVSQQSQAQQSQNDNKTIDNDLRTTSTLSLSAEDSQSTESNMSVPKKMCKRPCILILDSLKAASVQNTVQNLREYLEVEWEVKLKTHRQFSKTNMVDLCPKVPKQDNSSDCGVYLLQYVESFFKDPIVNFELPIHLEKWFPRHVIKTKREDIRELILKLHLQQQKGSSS
Format: functional.

For experiment [9], the target named is T5, Sentrin-specific protease 6 (Homo sapiens, UniProt Q9GZR1).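 Also: Luminescence-based dose-response confirmatory assay of SENP6 inhibition, following up an ultra-high-throughput screen.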
T5 sequence (Q9GZR1 whole entry): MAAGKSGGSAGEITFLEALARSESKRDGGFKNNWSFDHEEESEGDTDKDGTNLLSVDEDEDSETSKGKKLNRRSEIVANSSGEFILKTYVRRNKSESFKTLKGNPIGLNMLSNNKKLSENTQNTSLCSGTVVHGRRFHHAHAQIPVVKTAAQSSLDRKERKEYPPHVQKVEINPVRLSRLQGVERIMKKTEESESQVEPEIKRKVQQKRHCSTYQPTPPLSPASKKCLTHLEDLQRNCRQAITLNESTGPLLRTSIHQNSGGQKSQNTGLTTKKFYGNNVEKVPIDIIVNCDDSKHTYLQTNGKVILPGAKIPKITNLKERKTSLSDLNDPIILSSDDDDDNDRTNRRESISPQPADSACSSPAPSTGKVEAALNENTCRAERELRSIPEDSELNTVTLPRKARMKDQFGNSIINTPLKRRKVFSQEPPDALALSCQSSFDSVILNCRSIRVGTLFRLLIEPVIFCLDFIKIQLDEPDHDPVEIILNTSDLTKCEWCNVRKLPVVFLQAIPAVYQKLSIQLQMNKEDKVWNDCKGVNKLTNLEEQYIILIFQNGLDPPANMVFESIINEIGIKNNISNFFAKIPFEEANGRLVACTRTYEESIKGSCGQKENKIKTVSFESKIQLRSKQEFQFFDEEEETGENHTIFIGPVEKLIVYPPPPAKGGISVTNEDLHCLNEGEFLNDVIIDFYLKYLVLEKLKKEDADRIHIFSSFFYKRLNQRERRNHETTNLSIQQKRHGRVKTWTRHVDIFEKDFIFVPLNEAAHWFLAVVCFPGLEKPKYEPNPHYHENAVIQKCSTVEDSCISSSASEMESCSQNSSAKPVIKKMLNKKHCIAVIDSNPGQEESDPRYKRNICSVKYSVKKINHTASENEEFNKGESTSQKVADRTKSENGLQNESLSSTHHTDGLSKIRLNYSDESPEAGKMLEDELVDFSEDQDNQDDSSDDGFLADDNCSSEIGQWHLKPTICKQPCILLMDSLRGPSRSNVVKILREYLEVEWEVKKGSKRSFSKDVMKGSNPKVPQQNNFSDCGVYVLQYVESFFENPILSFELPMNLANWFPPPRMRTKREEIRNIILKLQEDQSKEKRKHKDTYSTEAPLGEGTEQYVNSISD
Type of experiment: functional.

For experiment [10], the target named is T6, Sentrin-specific protease 8 (Homo sapiens, UniProt Q96LD8).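 Also: luminescence read-out of SENP8 inhibition, dose-response confirmation following an ultra-high-throughput screen.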
T6 sequence (Q96LD8 whole entry): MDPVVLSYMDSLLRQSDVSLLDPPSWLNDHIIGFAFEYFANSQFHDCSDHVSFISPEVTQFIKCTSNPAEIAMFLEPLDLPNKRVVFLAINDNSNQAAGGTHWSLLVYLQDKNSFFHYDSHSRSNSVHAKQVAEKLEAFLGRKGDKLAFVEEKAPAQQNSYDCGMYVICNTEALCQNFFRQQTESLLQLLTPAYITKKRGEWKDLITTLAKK
Type of experiment: functional.

For the next experiment, the system named is INS1. Nature of the experiment: beta cell apoptosis inhibitors, cytokine rescue, dose response, luminescence, retest (AID 449756).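 Also: cell death triggered by IL-1 beta plus TNF-alpha plus IFN-gamma mixture; protective hits raise ATP signal compared with cytokine alone wells.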 Type of experiment: functional, cell-based. As to conditions: Rattus norvegicus.

Activity calls are given as the source filed them. Where only a bound is given, the exact number is not on record here.

For the compound `Cc1sc2ncnc(SCC(=O)Nc3ncccc3O)c2c1C`, the IC50 in experiment [1] was 5.35 µM (active).
Regarding `CCCNC(=O)C1CC(=O)N(c2ccc(OCC)cc2)C1` (centres undefined), the IC50 in [2] was > 47.1 µM (inactive). In addition, in experiment [3], the EC50 was > 53 µM (inactive).
Taken in the same sequence, the figures for `CCO[C@@H]1OC(C(N)=O)=C[C@H](C(C)(C)C)[C@H]1CCCO` were > 47.1 µM (inactive) and > 53 µM (inactive).
Taken in the same sequence, the figures for `Cc1cc(C)cc(NC(=O)Cn2nnc(C(=O)NCc3ccc(F)cc3)c2N)c1` were > 47.1 µM (inactive) and > 53 µM (inactive).
Turning to `O=C(NCc1cccnc1)c1ccc(-c2cccc(Cl)c2Cl)o1`, the EC50 in experiment [4] is > 38 µM (inactive); in experiment [5], > 38 µM (not active); in experiment [6] it was 0.92 µM (active); in experiment [7] it was > 60 µM (not active).
As to `O=C(CCS(=O)(=O)c1ccc(Br)cc1)NCCc1ccccc1`, the IC50 in experiment [1] was 26.3 µM (active).
In the case of `CCC1CCc2sc(C(=O)NNC(=O)c3ccncc3)cc2C1` (centres undefined), the IC50 in the experiment “cells” is 21.6 µM (active).
As for `O=C(OCC(=O)N1CCCC1)c1cc(Br)ccc1Cl`, the IC50 in the experiment “cells” is 22 µM (active).
On to `Cc1ccc(-c2c(NCCc3ccccc3)c(=O)c2=O)cc1`, for which the IC50 in experiment [1] is 9.66 µM (active).
On to `Cc1ccc(Cn2ccs/c2=N\C(=O)COC(=O)c2ccc(O)cc2O)cc1`, for which the IC50 on Caspase-3 was 37.1 µM (active); in [8], 7.79 µM (active); in experiment [9], 10.6 µM (active); in experiment [10] it was > 100 µM (inactive).
Regarding `Cc1cccc(N2C(N)=NC(N)=NC23CCCCC3)c1`, the IC50 in experiment [2] was > 47.1 µM (inactive). Also, the EC50 in experiment [3] was > 53 µM (inactive).
In the case of `CNC(=S)Nc1ccc(-c2nc3ccc(C)cc3s2)cc1`, the IC50 was 7.31 µM (active) at Caspase-3, 3.62 µM (active) in experiment [8], 5.18 µM (active) in experiment [9] and 5.47 µM (active) in [10].
For orientation: AC50 means the concentration giving half of the maximal activity seen. For the compound `CCn1c(N=NO)nc2ccccc21`, the EC50 in [4] was 21.9 µM (active); in experiment [5], > 38 µM (not active). In the experiment on INS1, the AC50 is 1.83 µM (active).
For the compound `COc1cc(C(=O)O)c2ccccc2n1`, in [2], the IC50 is < 0.368 µM (active). In addition, the EC50 in experiment [3] was > 53 µM (inactive).
On to `Cc1cccc(-c2noc(-c3c(C)noc3C)n2)c1`, for which the IC50 on Caspase-3 is 29.8 µM (active); in [8] it was 6.22 µM (active); in experiment [9], > 100 µM (inactive); in [10], > 100 µM (inactive).
For `Cc1csc(NC(=O)c2ccc(Br)s2)n1`, the IC50 at Caspase-3 was 14 µM (active); in experiment [8] it was 7.6 µM (active); in experiment [9] it was 24.9 µM (active); in [10], 27.4 µM (active).
In the case of `CC[C@]12c3[nH]c4ccc(OC)cc4c3CCN1C(=O)C(CC(=O)NCCCOC)C[C@@H]2C(=O)N1CCN(C(=O)c2ccco2)CC1` (some centres undefined), the IC50 in [2] is > 47.1 µM (inactive). In addition, in experiment [3], the EC50 is > 53 µM (inactive).
For `CSc1nc2ccc(NC(=O)C3CC(=O)N(Cc4ccccc4)C3)cc2s1` (centres undefined), the IC50 in “cells” is 11.4 µM (active).
As to `Cc1cccc(NC(=O)CN2C(=O)S/C(=C\c3ccc(-c4cccc(C(=O)O)c4C)o3)C2=O)c1`, the IC50 in [1] is 3.95 µM (active).
On to `O=C(N/N=C/C=C/c1ccco1)c1ccncc1`, for which the IC50 in “cells” is 1.31 µM (active).
Turning to `O=C(COC(=O)c1ccc(Br)o1)NCCCc1ccccc1`, the IC50 in the experiment “cells” is 38.5 µM (active).

(Values after ChEMBL document CHEMBL1201862, “PubChem BioAssay data set” (2004).)
